Data set [1] in a line: Comparative equilibrium solubility of salts of compound 1. Particulars: pH listed with the equilibrium solubility.
The target in another data set is D2 receptors (Homo sapiens, UniProt P14416). Particulars: therapeutic models, WO 01/14330; cited from earlier work.
The next data set deals with rodents. Conditions: cited from earlier work.
The conditions of data set [2]: in vivo; cited from earlier work.
For a further data set, the system named is 5HT reuptake. Particulars: therapeutic models, WO 01/14330; cited from earlier work.

D2 receptors, sequence (P14416 whole entry): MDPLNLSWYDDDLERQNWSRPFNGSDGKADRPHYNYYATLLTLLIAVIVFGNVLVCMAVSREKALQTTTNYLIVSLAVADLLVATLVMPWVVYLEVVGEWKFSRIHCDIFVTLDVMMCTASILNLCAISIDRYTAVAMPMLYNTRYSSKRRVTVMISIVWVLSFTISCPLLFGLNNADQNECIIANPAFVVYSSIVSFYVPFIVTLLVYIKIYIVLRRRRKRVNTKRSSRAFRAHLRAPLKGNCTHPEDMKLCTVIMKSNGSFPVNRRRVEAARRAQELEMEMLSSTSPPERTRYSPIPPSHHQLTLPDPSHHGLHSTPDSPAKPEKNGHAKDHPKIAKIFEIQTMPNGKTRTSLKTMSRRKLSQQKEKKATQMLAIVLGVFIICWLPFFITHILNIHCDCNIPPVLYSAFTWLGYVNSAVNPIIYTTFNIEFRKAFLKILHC

For `CC1Oc2c(cccc2N2CCN(CCCc3c[nH]c4ccc(F)cc34)CC2)NC1=O` (stereo not drawn) [compound 1, 8-{4-[3-(5-fluoro-1H-indol-3-yl)-propyl]-piperazin-1-yl}-2-methyl-4H-benzo[1,4]oxazin-3-one], the pH in data set [1] (listed as freebase (1)) was 4.72. Further, the “antagonistic activity at D2 receptors” value at D2 receptors is on record as “antagonistic activity at D2 receptors”. In the data set on rodents, the “propensity to induce catalepsy” value was “low propensity to induce catalepsy”. Moreover, the “activity in therapeutic models sensitive to clinically relevant antipsychotics, antidepressants, anxiolytics, and Parkinson's disease” value in data set [2] is recorded as “active”. Also, the “inhibitory activity against 5HT reuptake” value in the data set on 5HT reuptake was “inhibitory activity against 5HT reuptake”.
Take `CC1Oc2c(cccc2N2CCN(CCCc3c[nH]c4ccc(F)cc34)CC2)NC1=O` (stereo not drawn) [compound 2]: the pH in data set [1] (listed as glucuronate (2)) came out at 4.25.

Values taken from patent US7709024B2, “Sustained-release formulation and uses thereof” (Solvay Pharmaceuticals B.V., priority 2005, dated 2010).
